Assays:
[1] = biological target: Interferon-induced, double-stranded RNA-activated protein kinase (Homo sapiens) (UniProt P19525); details: Compound concentration 1000.0 nM
[2] = biological target: Insulin receptor-related protein (Homo sapiens) (UniProt P14616); details: Compound concentration 1000.0 nM
[3] = biological target: Myosin light chain kinase 2, skeletal/cardiac muscle (Homo sapiens) (UniProt Q9H1R3); details: Compound concentration 1000.0 nM
[4] = system: Epidermal growth factor receptor (Homo sapiens), P00533 [L858R,T790M]; details: Compound concentration 1000.0 nM
[5] = biological target: Mitogen-activated protein kinase kinase kinase 7 (Homo sapiens) (UniProt O43318); details: Compound concentration 1000.0 nM
[6] = biological target: MAP kinase-interacting serine/threonine-protein kinase 1 (Homo sapiens) (UniProt Q9BUB5); details: Compound concentration 1000.0 nM
[7] = biological target: Glycogen synthase kinase-3 alpha (Homo sapiens) (UniProt P49840); details: Compound concentration 1000.0 nM
Chain of Glycogen synthase kinase-3 alpha (Homo sapiens) (P49840 2-483 limits assumed): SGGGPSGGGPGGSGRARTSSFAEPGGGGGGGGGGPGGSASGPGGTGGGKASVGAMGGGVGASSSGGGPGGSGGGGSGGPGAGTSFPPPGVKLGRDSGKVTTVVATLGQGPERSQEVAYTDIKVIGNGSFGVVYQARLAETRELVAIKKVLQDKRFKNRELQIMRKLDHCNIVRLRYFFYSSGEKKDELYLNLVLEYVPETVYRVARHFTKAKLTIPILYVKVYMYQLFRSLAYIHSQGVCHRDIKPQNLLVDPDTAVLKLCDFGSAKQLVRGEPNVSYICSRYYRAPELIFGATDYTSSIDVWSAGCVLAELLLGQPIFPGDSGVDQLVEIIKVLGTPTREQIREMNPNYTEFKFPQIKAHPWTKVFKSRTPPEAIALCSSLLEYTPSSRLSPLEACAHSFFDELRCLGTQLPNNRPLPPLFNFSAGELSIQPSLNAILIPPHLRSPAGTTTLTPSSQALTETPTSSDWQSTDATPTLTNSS

[8] = biological target: Serine/threonine-protein kinase LATS2 (Homo sapiens) (UniProt Q9NRM7); details: Compound concentration 1000.0 nM
[9] = biological target: Serine/threonine-protein kinase tousled-like 1 (Homo sapiens) (UniProt Q9UKI8); details: Compound concentration 1000.0 nM
Chain of Serine/threonine-protein kinase tousled-like 1 (Homo sapiens) (Q9UKI8 whole entry): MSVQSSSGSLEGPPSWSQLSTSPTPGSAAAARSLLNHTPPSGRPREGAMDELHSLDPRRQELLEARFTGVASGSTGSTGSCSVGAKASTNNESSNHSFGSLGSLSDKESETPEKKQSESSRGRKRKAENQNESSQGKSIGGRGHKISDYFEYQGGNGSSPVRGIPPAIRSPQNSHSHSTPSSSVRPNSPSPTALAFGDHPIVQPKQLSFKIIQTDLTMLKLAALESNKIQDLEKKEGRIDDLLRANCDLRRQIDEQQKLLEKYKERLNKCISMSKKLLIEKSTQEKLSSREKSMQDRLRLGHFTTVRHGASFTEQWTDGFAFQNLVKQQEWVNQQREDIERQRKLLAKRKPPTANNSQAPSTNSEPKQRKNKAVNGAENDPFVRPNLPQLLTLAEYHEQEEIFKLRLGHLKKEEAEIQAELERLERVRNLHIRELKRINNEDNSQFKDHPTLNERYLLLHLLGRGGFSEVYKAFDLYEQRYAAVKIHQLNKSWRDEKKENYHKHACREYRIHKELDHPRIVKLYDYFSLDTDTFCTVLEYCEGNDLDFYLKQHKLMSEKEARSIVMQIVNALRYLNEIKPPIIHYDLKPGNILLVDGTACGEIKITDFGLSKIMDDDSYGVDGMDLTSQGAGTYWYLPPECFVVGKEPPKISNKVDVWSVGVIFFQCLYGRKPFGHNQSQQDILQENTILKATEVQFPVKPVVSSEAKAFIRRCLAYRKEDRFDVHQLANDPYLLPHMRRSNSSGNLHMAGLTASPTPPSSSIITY

[10] = system: Tyrosine-protein kinase ABL1 (Homo sapiens), P00519 [F317I]; details: Compound concentration 1000.0 nM
[11] = biological target: LIM domain kinase 2 (Homo sapiens) (UniProt P53671); details: Compound concentration 1000.0 nM
[12] = biological target: Casein kinase I isoform gamma-2 (Homo sapiens) (UniProt P78368); details: Compound concentration 1000.0 nM
[13] = system: Epidermal growth factor receptor (Homo sapiens), P00533 [UNDEFINED MUTATION]; details: Compound concentration 1000.0 nM
[14] = biological target: Serine/threonine-protein kinase BRSK2 (Homo sapiens) (UniProt Q8IWQ3); details: Compound concentration 1000.0 nM
[15] = biological target: Fibroblast growth factor receptor 1 (Homo sapiens) (UniProt P11362); details: Compound concentration 1000.0 nM
[16] = biological target: Ephrin type-A receptor 8 (Homo sapiens) (UniProt P29322); details: Compound concentration 1000.0 nM
[17] = biological target: Proto-oncogene tyrosine-protein kinase Src (Homo sapiens) (UniProt P12931); details: Compound concentration 1000.0 nM
[18] = biological target: 1-phosphatidylinositol 3-phosphate 5-kinase (Homo sapiens) (UniProt Q9Y2I7); details: Compound concentration 1000.0 nM
[19] = biological target: High affinity nerve growth factor receptor (Homo sapiens) (UniProt P04629); details: Compound concentration 1000.0 nM
[20] = system: Tyrosine-protein kinase ABL1 (Homo sapiens), P00519 [Q252H]; details: Compound concentration 1000.0 nM
[21] = biological target: Tyrosine-protein kinase Blk (Homo sapiens) (UniProt P51451); details: Compound concentration 1000.0 nM
[22] = biological target: Calcium/calmodulin-dependent protein kinase kinase 2 (Homo sapiens) (UniProt Q96RR4); details: Compound concentration 1000.0 nM
[23] = biological target: Serine/threonine-protein kinase DCLK1 (Homo sapiens) (UniProt O15075); details: Compound concentration 1000.0 nM
[24] = biological target: Tyrosine-protein kinase Lyn (Homo sapiens) (UniProt P07948); details: Compound concentration 1000.0 nM
[25] = biological target: D(1A) dopamine receptor (Homo sapiens) (UniProt P21728); details: Compound concentration 10.0 uM
[26] = biological target: Serine/threonine-protein kinase Nek10 (Homo sapiens) (UniProt Q6ZWH5); details: Compound concentration 1000.0 nM
[27] = biological target: Ribosomal protein S6 kinase alpha-5 (Homo sapiens) (UniProt O75582); details: Compound concentration 1000.0 nM
Chain of Ribosomal protein S6 kinase alpha-5 (Homo sapiens) (O75582 whole entry, looked up): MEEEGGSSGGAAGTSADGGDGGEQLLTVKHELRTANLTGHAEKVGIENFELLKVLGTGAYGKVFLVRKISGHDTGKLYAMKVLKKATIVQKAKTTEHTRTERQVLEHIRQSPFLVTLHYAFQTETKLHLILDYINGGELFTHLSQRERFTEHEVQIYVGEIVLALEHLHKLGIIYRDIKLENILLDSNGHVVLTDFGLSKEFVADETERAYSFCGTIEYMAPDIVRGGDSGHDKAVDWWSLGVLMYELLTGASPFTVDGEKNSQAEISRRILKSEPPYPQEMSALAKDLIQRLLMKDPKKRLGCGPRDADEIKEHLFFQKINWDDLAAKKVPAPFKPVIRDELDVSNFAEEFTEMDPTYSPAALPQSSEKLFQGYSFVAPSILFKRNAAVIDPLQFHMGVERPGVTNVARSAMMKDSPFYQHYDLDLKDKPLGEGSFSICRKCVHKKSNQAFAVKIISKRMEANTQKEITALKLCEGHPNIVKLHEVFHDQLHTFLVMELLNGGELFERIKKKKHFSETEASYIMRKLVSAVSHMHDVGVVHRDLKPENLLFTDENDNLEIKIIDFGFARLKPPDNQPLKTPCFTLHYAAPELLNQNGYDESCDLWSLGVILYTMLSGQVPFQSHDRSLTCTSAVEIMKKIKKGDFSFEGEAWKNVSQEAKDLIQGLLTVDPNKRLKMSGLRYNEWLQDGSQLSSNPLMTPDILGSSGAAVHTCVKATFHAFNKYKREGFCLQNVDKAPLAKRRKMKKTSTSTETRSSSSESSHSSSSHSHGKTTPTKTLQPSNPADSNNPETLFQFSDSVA

[28] = biological target: Rhodopsin kinase GRK1 (Homo sapiens) (UniProt Q15835); details: Compound concentration 1000.0 nM
[29] = biological target: Inhibitor of nuclear factor kappa-B kinase subunit alpha (Homo sapiens) (UniProt O15111); details: Compound concentration 1000.0 nM
[30] = biological target: Serine/threonine-protein kinase 32C (Homo sapiens) (UniProt Q86UX6); details: Compound concentration 1000.0 nM
[31] = biological target: Serine/threonine-protein kinase 38-like (Homo sapiens) (UniProt Q9Y2H1); details: Compound concentration 1000.0 nM
[32] = biological target: Tyrosine-protein kinase receptor UFO (Homo sapiens) (UniProt P30530); details: Compound concentration 1000.0 nM
[33] = biological target: Tyrosine-protein kinase ZAP-70 (Homo sapiens) (UniProt P43403); details: Compound concentration 1000.0 nM
[34] = biological target: cAMP-dependent protein kinase catalytic subunit PRKX (Homo sapiens) (UniProt P51817); details: Compound concentration 1000.0 nM
[35] = biological target: Serine/threonine-protein kinase WNK1 (Homo sapiens) (UniProt Q9H4A3); details: Compound concentration 1000.0 nM
[36] = biological target: Cyclin-dependent kinase 14 (Homo sapiens) (UniProt O94921); details: Compound concentration 1000.0 nM
[37] = biological target: Aurora kinase C (Homo sapiens) (UniProt Q9UQB9); details: Compound concentration 1000.0 nM
[38] = biological target: Vascular endothelial growth factor receptor 3 (Homo sapiens) (UniProt P35916); details: Compound concentration 1000.0 nM
[39] = biological target: Casein kinase II subunit alpha (Homo sapiens) (UniProt P68400); details: Compound concentration 1000.0 nM
Chain of Casein kinase II subunit alpha (Homo sapiens) (P68400 whole entry, looked up, canonical isoform): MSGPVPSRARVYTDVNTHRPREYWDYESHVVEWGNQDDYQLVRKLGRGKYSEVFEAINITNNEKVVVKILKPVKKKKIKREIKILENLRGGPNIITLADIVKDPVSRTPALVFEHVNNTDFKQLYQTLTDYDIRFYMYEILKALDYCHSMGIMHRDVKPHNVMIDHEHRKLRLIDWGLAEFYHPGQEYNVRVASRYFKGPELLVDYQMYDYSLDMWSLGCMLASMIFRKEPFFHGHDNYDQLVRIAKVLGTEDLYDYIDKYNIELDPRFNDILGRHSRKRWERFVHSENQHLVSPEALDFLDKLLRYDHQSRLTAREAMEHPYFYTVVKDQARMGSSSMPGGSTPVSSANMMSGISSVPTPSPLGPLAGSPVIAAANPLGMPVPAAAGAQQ

[40] = system: Phosphatidylinositol 4,5-bisphosphate 3-kinase catalytic subunit alpha isoform (Homo sapiens), P42336 [Q546K]; details: Compound concentration 1000.0 nM
Chain of Phosphatidylinositol 4,5-bisphosphate 3-kinase catalytic subunit alpha isoform (Homo sapiens), P42336 [Q546K] (P42336 whole entry Q546K, canonical isoform): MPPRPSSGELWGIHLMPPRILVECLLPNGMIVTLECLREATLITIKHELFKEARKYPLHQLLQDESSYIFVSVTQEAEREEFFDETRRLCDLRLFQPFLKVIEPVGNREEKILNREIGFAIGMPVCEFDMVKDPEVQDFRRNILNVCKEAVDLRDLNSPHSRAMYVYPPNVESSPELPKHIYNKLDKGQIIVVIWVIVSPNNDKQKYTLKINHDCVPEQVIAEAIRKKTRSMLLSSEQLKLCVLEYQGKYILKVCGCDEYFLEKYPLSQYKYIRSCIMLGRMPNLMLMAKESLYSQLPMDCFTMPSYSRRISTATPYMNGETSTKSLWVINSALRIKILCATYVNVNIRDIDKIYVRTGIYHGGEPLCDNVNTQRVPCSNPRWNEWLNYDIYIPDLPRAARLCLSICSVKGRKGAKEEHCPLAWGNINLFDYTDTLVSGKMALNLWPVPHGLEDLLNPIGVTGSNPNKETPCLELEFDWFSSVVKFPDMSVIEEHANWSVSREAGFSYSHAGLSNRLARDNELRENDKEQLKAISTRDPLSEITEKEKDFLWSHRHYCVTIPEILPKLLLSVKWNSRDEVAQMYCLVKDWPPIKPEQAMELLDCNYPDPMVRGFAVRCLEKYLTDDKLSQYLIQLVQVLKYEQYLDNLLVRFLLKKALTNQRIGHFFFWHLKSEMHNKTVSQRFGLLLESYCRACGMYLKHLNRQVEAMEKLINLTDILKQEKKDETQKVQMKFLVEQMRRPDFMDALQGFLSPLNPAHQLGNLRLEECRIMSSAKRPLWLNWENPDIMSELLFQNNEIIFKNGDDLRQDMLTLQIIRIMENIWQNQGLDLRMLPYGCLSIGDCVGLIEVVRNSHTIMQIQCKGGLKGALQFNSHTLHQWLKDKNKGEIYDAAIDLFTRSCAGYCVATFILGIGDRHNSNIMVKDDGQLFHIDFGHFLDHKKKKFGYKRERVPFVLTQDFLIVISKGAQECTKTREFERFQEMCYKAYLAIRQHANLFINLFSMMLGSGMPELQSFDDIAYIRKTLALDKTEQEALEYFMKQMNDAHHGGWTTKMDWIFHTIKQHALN

[41] = biological target: Ephrin type-A receptor 5 (Homo sapiens) (UniProt P54756); details: Compound concentration 1000.0 nM
[42] = biological target: MAP kinase-activated protein kinase 2 (Homo sapiens) (UniProt P49137); details: Compound concentration 1000.0 nM
[43] = biological target: Mast/stem cell growth factor receptor Kit (Homo sapiens) (UniProt P10721); details: Compound concentration 1000.0 nM
[44] = biological target: Protein kinase C epsilon type (Homo sapiens) (UniProt Q02156); details: Compound concentration 1000.0 nM
[45] = system: Phosphatidylinositol 4,5-bisphosphate 3-kinase catalytic subunit alpha isoform (Homo sapiens), P42336 [H1047Y]; details: Compound concentration 1000.0 nM
Chain of Phosphatidylinositol 4,5-bisphosphate 3-kinase catalytic subunit alpha isoform (Homo sapiens), P42336 [H1047Y] (P42336 whole entry H1047Y, canonical isoform): as the sequence (P42336 whole entry Q546K, canonical isoform) above, with K546Q, H1047Y counted along it

Chain of Insulin receptor-related protein (Homo sapiens) (P14616 27-742 limits assumed): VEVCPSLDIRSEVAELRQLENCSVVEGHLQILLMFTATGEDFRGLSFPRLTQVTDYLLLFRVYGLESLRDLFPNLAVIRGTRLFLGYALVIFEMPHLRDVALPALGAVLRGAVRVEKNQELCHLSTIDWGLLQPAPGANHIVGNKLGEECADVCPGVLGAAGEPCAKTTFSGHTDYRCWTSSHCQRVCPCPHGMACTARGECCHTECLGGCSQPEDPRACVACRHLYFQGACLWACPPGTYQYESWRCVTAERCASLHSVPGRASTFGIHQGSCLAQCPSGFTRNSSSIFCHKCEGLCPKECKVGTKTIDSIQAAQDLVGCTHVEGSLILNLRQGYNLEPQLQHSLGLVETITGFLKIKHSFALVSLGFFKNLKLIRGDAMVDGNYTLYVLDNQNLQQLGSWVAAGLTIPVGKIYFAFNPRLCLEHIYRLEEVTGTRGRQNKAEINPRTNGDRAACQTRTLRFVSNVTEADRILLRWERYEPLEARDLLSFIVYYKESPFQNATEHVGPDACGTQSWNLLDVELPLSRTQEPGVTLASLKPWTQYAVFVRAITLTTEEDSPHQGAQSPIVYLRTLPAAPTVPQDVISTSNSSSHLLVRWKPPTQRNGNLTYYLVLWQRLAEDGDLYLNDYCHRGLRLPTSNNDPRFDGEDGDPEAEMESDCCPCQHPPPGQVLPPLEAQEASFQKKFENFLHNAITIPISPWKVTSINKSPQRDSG
Chain of Insulin receptor-related protein (Homo sapiens) (P14616 747-1297 limits assumed): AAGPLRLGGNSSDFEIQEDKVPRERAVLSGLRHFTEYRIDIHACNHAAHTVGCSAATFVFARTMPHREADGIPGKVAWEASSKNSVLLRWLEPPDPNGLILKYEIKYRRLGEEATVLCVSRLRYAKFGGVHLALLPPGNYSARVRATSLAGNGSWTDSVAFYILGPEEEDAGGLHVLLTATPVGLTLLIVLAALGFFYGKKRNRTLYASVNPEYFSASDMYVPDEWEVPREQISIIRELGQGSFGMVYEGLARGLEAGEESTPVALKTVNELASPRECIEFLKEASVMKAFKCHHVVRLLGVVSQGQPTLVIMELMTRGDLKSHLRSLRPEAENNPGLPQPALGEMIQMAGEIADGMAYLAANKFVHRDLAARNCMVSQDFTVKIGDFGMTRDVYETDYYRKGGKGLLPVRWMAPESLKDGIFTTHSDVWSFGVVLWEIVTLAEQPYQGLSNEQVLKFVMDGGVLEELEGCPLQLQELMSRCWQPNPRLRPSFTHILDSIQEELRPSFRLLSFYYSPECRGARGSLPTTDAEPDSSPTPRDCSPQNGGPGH

COc1ccc2c(O[C@@H]3C[C@H]4C(=O)N[C@]5(C(=O)O)CC5/C=C\CCCCC[C@H](NC(=O)OC5CCCC5)C(=O)N4C3)cc(-c3csc(NC(=O)C(C)C)n3)nc2c1C (stereo not given in full) [BI 1230]
residual activity [1]: 100%
residual activity [2]: 95%
residual activity [3]: 100%
residual activity [4]: 100%
residual activity [5]: 67%
residual activity [6]: 79%
residual activity [7]: 100%
residual activity [8]: 98%
residual activity [9]: 100%
residual activity [10]: 90%
residual activity [11]: 100%
residual activity [12]: 90%
residual activity [13]: 62%
residual activity [14]: 100%
residual activity [15]: 98%
residual activity [16]: 100%
residual activity [17]: 100%
residual activity [18]: 100%
residual activity [19]: 82%
residual activity [20]: 80%
residual activity [21]: 97%
residual activity [22]: 100%
residual activity [23]: 76%
residual activity [24]: 94%
inhibition [25]: 46.3%
residual activity [26]: 79%
residual activity [27]: 100%
residual activity [28]: 100%
residual activity [29]: 92%
residual activity [30]: 63%
residual activity [31]: 43%
residual activity [32]: 97%
residual activity [33]: 100%
residual activity [34]: 86%
residual activity [35]: 100%
residual activity [36]: 88%
residual activity [37]: 96%
residual activity [38]: 100%
residual activity [39]: 81%
residual activity [40]: 70%
residual activity [41]: 97%
residual activity [42]: 60%
residual activity [43]: 72%
residual activity [44]: 58%
residual activity [45]: 100%

O=C(N[C@H]1CCCCC/C=C\C2C[C@@]2(C(=O)O)NC(=O)[C@@H]2C[C@@H](Oc3ccncc3)CN2C1=O)OC1CCCC1 (stereo not given in full) [BI 1675]
residual activity [1]: 100%
residual activity [2]: 100%
residual activity [3]: 100%
residual activity [4]: 98%
residual activity [5]: 77%
residual activity [6]: 79%
residual activity [7]: 100%
residual activity [8]: 100%
residual activity [9]: 82%
residual activity [10]: 100%
residual activity [11]: 93%
residual activity [12]: 63%
residual activity [13]: 49%
residual activity [14]: 100%
residual activity [15]: 100%
residual activity [16]: 100%
residual activity [17]: 100%
residual activity [18]: 100%
residual activity [19]: 100%
residual activity [20]: 85%
residual activity [21]: 63%
residual activity [22]: 95%
residual activity [23]: 97%
residual activity [24]: 87%
inhibition [25]: -4.18%
residual activity [26]: 81%
residual activity [27]: 78%
residual activity [28]: 100%
residual activity [29]: 100%
residual activity [30]: 100%
residual activity [31]: 80%
residual activity [32]: 95%
residual activity [33]: 96%
residual activity [34]: 80%
residual activity [35]: 90%
residual activity [36]: 91%
residual activity [37]: 92%
residual activity [38]: 93%
residual activity [39]: 83%
residual activity [40]: 98%
residual activity [41]: 100%
residual activity [42]: 89%
residual activity [43]: 84%
residual activity [44]: 100%
residual activity [45]: 100%

From ChEMBL document CHEMBL4507284, “Data for DCP probe BI-1230” (2021)
